Converted amounts (≈) assume the structure as drawn. Like-named read-outs stand apart in the source and are kept apart here. Bridge positions count the residues as written; N and C are the ends. Ends that are not written are not given here. Peptide text beside a SMILES is read from it.
Columns and labels:
Format in all cases: cell-based
C. albicans (ATCC64549) = test system: C. albicans (ATCC64549)
Method: (§1) In the examples, the minimal microbicidal concentrations (MMC) and minimal inhibitory concentrations (MIC) were determined as follows, unless otherwise specified in the examples. Bacterial or fungal strains were cultured in BHI medium over night at 37° C. A volume of the culture was transferred to a new tube with BHI and incubated for two more hours. Thereafter the cells were spun down and the pellet was suspended in BHI medium diluted 1/100 (1% BHI). The concentration of bacterial or fungal cells was spectrophotometrically determined at 650 nm. The microbial concentrations were also determined by viable counts. Peptides serially diluted in 1% BHI by twofold or tenfold steps were added in triplicate to the wells of a microtiterplate (200 μl per well). The bacterial or fungal cell solutions were added in 10 μl volumes to give a final concentration of approximately 1-5×10^5 cells per ml in the well. The microplate was incubated at 37° C. in a humid chamber for two hours. Thereafter 5 μl was taken from each well and added as a drop onto a blood agar plate and incubated over night at 37° C. The microplate was incubated for another 20 hours at 37° C. and thereafter analysed spectrophotometrically at 650 nm in a microplate reader (Emax, Molecular Devices, USA). The concentration of peptide causing a 99% reduction of the inoculum after 2 hours of incubation was defined as the MMC99%. The MIC value was defined as the concentration giving no increase in the absorbance value above the background level after 20 hours of incubation.
(§2) C. albicans (ATCC64549) and E. coli O6, respectively, were incubated with the different peptides. The experiments were performed with 1, 10, 25 and 100 μg/ml of peptide.

E. coli O6 = test system: E. coli O6
Method: as §1, §2

[1] = test system: C. albicans yeast cells (ATCC64549); experiment: killing and growth inhibition of C. albicans at pH 4.5 (Example 11); set-up: key to C. albicans inhibition (OD650): + = no increase in OD650 is seen; − = OD650 continues to increase; conditions: pH 4.5, 1% BHI, 25 μg/ml of the peptide; for C. albicans inhibition (OD650): OD650 after an additional 18 hours; for C. albicans killing: 99% / C. albicans killing: 100%: 2 hours
Method: C. albicans yeast cells (ATCC64549) were incubated for 2 hours at pH 4.5 in BHI medium diluted to 1% of the original concentration containing 25 µg/ml of the peptide. Thereafter the fungal solutions were cultured on blood agar plates. OD650 was measured after incubation during an additional 18 hours. The fungicidal effect of the peptides on C. albicans was determined as the ability of the peptide to kill 100% and 99%, respectively, of the fungus, while the growth inhibitory effect was determined by measuring the OD650. An inhibitory effect existed when no increase in OD650 was recorded.

E. faecalis = experiment: killing of bacteria at fixed peptide concentration, E. faecalis (Example 12); conditions: peptide 25 μg/ml
Method: (§3) In this example, the peptides according to the invention were used to study the effect on the killing of different bacteria.
(§4) The peptides were used at a concentration of 25 μg/ml.

S. epidermis = experiment: killing of bacteria at fixed peptide concentration, S. epidermis (Example 12); conditions: peptide 25 μg/ml
Method: as §3, §4

S. aureus = experiment: killing of bacteria at fixed peptide concentration, S. aureus (Example 12); conditions: peptide 25 μg/ml
Method: as §3, §4

K. pneumoniae = experiment: killing of bacteria at fixed peptide concentration, K. pneumoniae (Example 12); conditions: peptide 25 μg/ml
Method: as §3, §4

P. aeruginosa = experiment: killing of bacteria at fixed peptide concentration, P. aeruginosa (Example 12); conditions: peptide 25 μg/ml
Method: as §3, §4

[2] = C. albicans, tested at 1, 10, 25 and 100 μg/ml of peptide
[3] = E. coli O6, tested at 1, 10, 25 and 100 μg/ml of peptide

| Molecule | MIC (C. albicans (ATCC64549); ATCC64549) | MMC99% (C. albicans (ATCC64549); [2]) | MMC99% (E. coli O6; [3]) | MIC (E. coli O6; O6) | C. albicans inhibition (OD650) [1] | C. albicans killing: 99% [1] | C. albicans killing: 100% [1] | killing of bacteria: E. faecalis (E. faecalis) | killing of bacteria: S. epidermis (S. epidermis) | killing of bacteria: S. aureus (S. aureus) | killing of bacteria: K. pneumoniae (K. pneumoniae) | killing of bacteria: P. aeruginosa (P. aeruginosa) | MIC (C. albicans (ATCC64549); [2]) | MIC (E. coli O6; [3]) |
| --- | --- | --- | --- | --- | --- | --- | --- | --- | --- | --- | --- | --- | --- | --- |
| CSCC[C@@H]1NC(=O)[C@@H](NC(=O)[C@H](CCCNC(=N)N)NC(=O)[C@@H]2CC(=O)NCCCC[C@H](NC(=O)[C@H](CCCCN)NC(=O)[C@@H](NC(C)=O)[C@@H](C)O)C(=O)N[C@@H](Cc3ccccc3)C(=O)N[C@@H](CCC(N)=O)C(=O)N[C@@H](Cc3c[nH]c4ccccc34)C(=O)N2)CCCCNC(=O)C[C@@H](C(=O)N[C@@H](CCCNC(=N)N)C(N)=O)NC(=O)[C@H](CCCCN)NC(=O)[C@H](CCCNC(=N)N)NC1=O [Peptide 61] (Ac-TKKFQWDRKMRKDR-NH2; lactam 3-7, 9-13; N-terminus and C-terminus assumed) | 10 mg/L (≈ 5.19 µM) | 10 µg/mL | 10 µg/mL | 10 mg/L (≈ 5.19 µM) | + | + (+ = 100/99% of the bacteria are killed) | − (− = less than 100/99% of the bacteria are killed) | + (+ = 99% of the bacteria are killed) | + (+ = 99% of the bacteria are killed) | + (+ = 99% of the bacteria are killed) | + (+ = 99% of the bacteria are killed) | + (+ = 99% of the bacteria are killed) |  |  |
| Ac-TKCFQWQRNMRKVR-NH2 [Peptide 51] | 10 mg/L | 10 µg/mL | 10 µg/mL | 10 mg/L | + | + (+ = 100/99% of the bacteria are killed) | + (+ = 100/99% of the bacteria are killed) | + (+ = 99% of the bacteria are killed) | + (+ = 99% of the bacteria are killed) | + (+ = 99% of the bacteria are killed) | + (+ = 99% of the bacteria are killed) | + (+ = 99% of the bacteria are killed) |  |  |
| EATKCFQWQRNMRKVR [Peptide 64] | 10 mg/L | 25 µg/mL | 10 µg/mL | 10 mg/L | + | + (+ = 100/99% of the bacteria are killed) | − (− = less than 100/99% of the bacteria are killed) | + (+ = 99% of the bacteria are killed) | + (+ = 99% of the bacteria are killed) | + (+ = 99% of the bacteria are killed) | − (− = less than 99% of the bacteria are killed) | − (− = less than 99% of the bacteria are killed) |  |  |
| FQWQRNMRKVR [Peptide 44] | 10 mg/L | 10 µg/mL | 10 µg/mL | 10 mg/L | − | − (− = less than 100/99% of the bacteria are killed) | − (− = less than 100/99% of the bacteria are killed) | + (+ = 99% of the bacteria are killed) | + (+ = 99% of the bacteria are killed) | + (+ = 99% of the bacteria are killed) | − (− = less than 99% of the bacteria are killed) | − (− = less than 99% of the bacteria are killed) |  |  |
| Peptide 57: 14 amino acids, modified positions 18-31 of human lactoferrin; sequence only in sequence listing (TKKFQWQRNMRKVR) |  | 25 µg/mL | 10 µg/mL |  | + | + (+ = 100/99% of the bacteria are killed) | + (+ = 100/99% of the bacteria are killed) | + (+ = 99% of the bacteria are killed) | + (+ = 99% of the bacteria are killed) | + (+ = 99% of the bacteria are killed) | + (+ = 99% of the bacteria are killed) | + (+ = 99% of the bacteria are killed) | 10 mg/L | 10 mg/L |
| Peptide 66: third embodiment, comprises a cysteine; sequence only in sequence listing (PEATKCFQWQRNMRKVR) |  |  |  |  | + | + (+ = 100/99% of the bacteria are killed) | − (− = less than 100/99% of the bacteria are killed) | + (+ = 99% of the bacteria are killed) | + (+ = 99% of the bacteria are killed) | + (+ = 99% of the bacteria are killed) | − (− = less than 99% of the bacteria are killed) | − (− = less than 99% of the bacteria are killed) |  |  |
| QPEATKCFQWQRNMRKVR [Peptide 33] | 10 mg/L | 100 µg/mL | 25 µg/mL | 10 mg/L | − | − (− = less than 100/99% of the bacteria are killed) | − (− = less than 100/99% of the bacteria are killed) | + (+ = 99% of the bacteria are killed) | + (+ = 99% of the bacteria are killed) | + (+ = 99% of the bacteria are killed) | − (− = less than 99% of the bacteria are killed) | − (− = less than 99% of the bacteria are killed) |  |  |
| QWQRNMRKVR [Peptide 40] | 25 mg/L | 25 µg/mL | >25 µg/mL | >25 mg/L | − | − (− = less than 100/99% of the bacteria are killed) | − (− = less than 100/99% of the bacteria are killed) | − (− = less than 99% of the bacteria are killed) | + (+ = 99% of the bacteria are killed) | − (− = less than 99% of the bacteria are killed) | − (− = less than 99% of the bacteria are killed) | − (− = less than 99% of the bacteria are killed) |  |  |

— patent US7803757B2, “Peptides based on the sequence of human lactoferrin and their use” (PharmaSurgics in Sweden AB, priority 1998, dated 2010)
